These results are taken from PMC11487425 (RSC Medicinal Chemistry, 2024).

In one series the test system is DYRK1A. The note with it: cited from earlier work.
For series [1] the following is noted: rat liver microsomes. In general terms: Microsomes from liver hold many membrane-bound enzymes, among them those of drug oxidation.
The target of series [2] is T1, DYRK1B (Homo sapiens, UniProt Q9Y463). As to the kind of experiment: DYRK1B radiometric kinase assay with Woodtide substrate peptide. The format is biochemical. The note with it: read-out: % inhibition at 1 μM, DYRK1B.
T1 sequence (Q9Y463 whole entry): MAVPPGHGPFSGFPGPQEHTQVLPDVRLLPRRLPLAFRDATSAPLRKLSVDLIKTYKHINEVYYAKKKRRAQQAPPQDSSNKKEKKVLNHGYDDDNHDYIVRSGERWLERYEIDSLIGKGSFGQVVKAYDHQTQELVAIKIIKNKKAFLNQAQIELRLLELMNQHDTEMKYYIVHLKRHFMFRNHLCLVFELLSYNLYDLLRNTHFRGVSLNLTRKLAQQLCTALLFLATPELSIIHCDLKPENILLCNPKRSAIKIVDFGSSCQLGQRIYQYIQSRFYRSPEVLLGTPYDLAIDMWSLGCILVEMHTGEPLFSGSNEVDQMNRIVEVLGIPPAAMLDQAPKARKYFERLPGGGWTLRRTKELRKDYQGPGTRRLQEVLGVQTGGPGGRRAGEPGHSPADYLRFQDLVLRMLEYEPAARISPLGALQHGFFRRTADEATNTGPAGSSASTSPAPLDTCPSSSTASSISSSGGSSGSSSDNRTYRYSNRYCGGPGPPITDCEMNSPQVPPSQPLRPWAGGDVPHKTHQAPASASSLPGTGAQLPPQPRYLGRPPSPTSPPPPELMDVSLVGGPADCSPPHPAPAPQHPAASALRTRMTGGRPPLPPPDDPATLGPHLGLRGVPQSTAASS
In series [3] the target is T2, CLK1 (Homo sapiens, UniProt P49759). As to the kind of experiment: Radiometric kinase assay. The format is biochemical.
T2 sequence (P49759 whole entry): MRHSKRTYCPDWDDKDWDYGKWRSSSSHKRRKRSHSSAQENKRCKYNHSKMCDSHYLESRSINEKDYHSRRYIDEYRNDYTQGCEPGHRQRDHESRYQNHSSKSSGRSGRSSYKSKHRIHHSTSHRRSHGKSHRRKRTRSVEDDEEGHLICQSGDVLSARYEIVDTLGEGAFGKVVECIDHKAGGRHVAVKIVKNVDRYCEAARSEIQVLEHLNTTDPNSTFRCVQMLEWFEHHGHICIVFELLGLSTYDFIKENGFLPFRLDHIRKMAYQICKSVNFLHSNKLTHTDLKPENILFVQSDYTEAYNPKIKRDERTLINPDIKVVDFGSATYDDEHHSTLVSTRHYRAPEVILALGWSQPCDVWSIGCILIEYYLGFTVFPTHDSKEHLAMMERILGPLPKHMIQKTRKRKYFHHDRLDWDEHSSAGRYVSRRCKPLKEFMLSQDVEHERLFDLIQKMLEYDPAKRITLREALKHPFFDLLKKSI
For series [4], the target named is T2, CLK1. Put plainly: Z'-LYTE kinase activity assay.
For series [5], the target named is T1, DYRK1B. Put plainly: Z'-LYTE kinase activity assay.
The next series concerns the target T3, DYRK2 (Homo sapiens, UniProt Q92630).
T3 sequence (Q92630 1-601): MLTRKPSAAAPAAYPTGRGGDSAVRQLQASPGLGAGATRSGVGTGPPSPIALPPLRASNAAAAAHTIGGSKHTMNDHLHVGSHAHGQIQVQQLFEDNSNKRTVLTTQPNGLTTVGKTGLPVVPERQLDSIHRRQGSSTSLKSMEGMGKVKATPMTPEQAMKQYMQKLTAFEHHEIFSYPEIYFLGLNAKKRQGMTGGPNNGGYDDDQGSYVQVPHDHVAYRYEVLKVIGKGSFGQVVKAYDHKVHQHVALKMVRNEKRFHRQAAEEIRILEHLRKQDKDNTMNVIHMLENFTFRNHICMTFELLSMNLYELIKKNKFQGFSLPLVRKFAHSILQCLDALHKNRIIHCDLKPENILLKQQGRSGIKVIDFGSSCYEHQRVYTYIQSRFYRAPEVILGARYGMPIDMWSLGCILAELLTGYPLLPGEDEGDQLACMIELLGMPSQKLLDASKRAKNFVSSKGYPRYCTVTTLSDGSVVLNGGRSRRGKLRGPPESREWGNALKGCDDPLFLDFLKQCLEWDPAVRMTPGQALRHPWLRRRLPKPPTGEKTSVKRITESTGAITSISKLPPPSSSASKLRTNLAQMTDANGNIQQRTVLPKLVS
As to the kind of experiment: LanthaScreen kinase binding assay. In general terms: In TR-FRET formats the signal depends on donor and acceptor labels being close together.

As usually defined, the IC50 is the concentration that gives 50% inhibition. Broadly, the inhibition is the drop in the measured response relative to a control, in per cent.

Where two headings read alike, the source gives them in different places.

With `CC(=O)c1cc2cc(O)ccc2s1` [1-(5-hydroxy-1-benzothiophen-2-yl)ethan-1-one], in the series with DYRK1A (read-out: IC50 DYRK1A), the IC50 was 200 nM. As for `COc1cccc2c1-c1c(sc3ccccc13)C2=O` [4a, 10-Methoxy-6H-benzo[b]indeno[1,2-d]thiophen-6-one], in series [1], the “microsomal stability in words” value was “rapidly metabolized”. `COc1cccc2c1C(=O)c1sc3ccccc3c1-2` [4d, 7-Methoxy-6H-benzo[b]indeno[1,2-d]thiophen-6-one]: on DYRK1B [2], the inhibition at 1 µM is 7%. In series [1], the “microsomal stability in words” value was “rapidly metabolized”.

In the case of `COc1ccc2sc3c(c2c1)-c1ccccc1C3=O` [4e, 2-Methoxy-6H-benzo[b]indeno[1,2-d]thiophen-6-one], the inhibition at 1 µM at DYRK1B [2] was 68%. Consider `COc1ccc2sc3c(c2c1)-c1c(OC)cccc1C3=O` [4f, 2,10-Dimethoxy-6H-benzo[b]indeno[1,2-d]thiophen-6-one], for which the inhibition at 1 µM at DYRK1B [2] is below 5%. The “microsomal stability in words” value in series [1] is reported as “rapidly metabolized”. Take `O=C1c2ccccc2-c2c1sc1ccc(O)cc21` [4i, 2-Hydroxy-6H-benzo[b]indeno[1,2-d]thiophen-6-one]: the inhibition at 1 µM at DYRK1B [2] came out at 89%. With `COc1ccc2c(c1)-c1c(sc3ccc(O)cc13)C2=O` [4j, 2-Hydroxy-9-methoxy-6H-benzo[b]indeno[1,2-d]thiophen-6-one], the inhibition at 1 µM on DYRK1B [2] is 93%. For the compound `COc1ccc2c(c1)C(=O)c1sc3ccc(O)cc3c1-2` [4k, 2-Hydroxy-8-methoxy-6H-benzo[b]indeno[1,2-d]thiophen-6-one], the inhibition at 1 µM on DYRK1B [2] was found to be 78%. Besides, the 50% inhibitory concentration (IC50) on CLK1 [3] came out at 20 nM; against CLK1 [4], 1080 nM; against DYRK1B [5], 206 nM; at DYRK2, 186 nM. `O=C(c1ccccc1)c1cc2cc(O)ccc2s1` [5c]: the IC50 with DYRK1A (read-out: IC50 for DYRK1A, benzothiophenyl-acetophenones 5, Fig. 2) is 2000 nM.
